Patent US8828401B2, “Cytotoxic peptides and antibody drug conjugates thereof” (Pfizer Inc., priority 2011, dated 2014)
Like-named read-outs stand apart in the source and are kept apart here. Starred links: 1 amine or outer side, 2 acyl side, 3 side chain; linkers in the order of their positions; H or OH if unused. Non-standard residues stand in square brackets, D forms with d. Residues, ends and D or L forms follow the SMILES beside them. *: point of attachment. Dolaproine = CO[C@@H]([C@@H]1CCCN1)[C@@H](C)C(=O)O; X6 = O=C([C@H](N[*:1])[C@@H]1Cc2ccccc21)[*:2]; Dil = CC[C@H](C)[C@H](NC)[C@@H](CC(=O)O)OC; NMeαMePro = CN1CCC[C@@]1(C)C(=O)*; dαMePip = C[C@]1(C(=O)O)CCCCN1; Ac4c(3-oxa) = NC1(C(=O)O)COC1; NHPhenethyl = c1ccc(CCN*)cc1; αMeV = CC(C)[C@](C)(N)C(=O)O; αMeP = C[C@@]1(C(=O)O)CCCN1; N(CH2CH2)2NH = C1CN(*)CCN1; NMeAib = CNC(C)(C)C(=O)O; Aib = CC(C)(N)C(=O)O; X3 = C1C2CC1(N*)C2

Legend:
Assay in all cases: In vitro cell assay, MTS cell viability 96 hours after treatment
Assay type in all cases: cell-based
BT474 (breast cancer) = conditions: geometric mean, cytotoxic peptides, read-out: BT474 GMEAN IC50
Method in brief: (§1)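 Duplicate wells received antibody-drug conjugates or free compounds across ten 3-fold dilutions. MTS assay determined viability, normalised to untreated controls.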

N87 (gastric cancer) = conditions: read-out: N87 GMEAN IC50, N87 cells; geometric mean; cytotoxic peptides
Method in brief: as §1

[1] = test system: MDA-MB-361-DYT2 (breast cancer); conditions: read-out: MDA-MB-361-DYT2 GMEAN IC50, MDA-MB-361-DYT2 cells; geometric mean; cytotoxic peptides
Method in brief: as §1

[2] = Homo sapiens, BT-474, BT474 cells

Row | SMILES | IC50 (BT474 (breast cancer); [2]) | IC50 (N87 (gastric cancer)) | IC50 [1] | IC50 (BT474 (breast cancer); BT474 cells)
1 | CC[C@H](C)[C@@H]([C@@H](CC(=O)N1CCC[C@H]1[C@H](OC)[C@@H](C)C(=O)N[C@@H](Cc1ccc2c(c1)CCCN2)C(=O)OC)OC)N(C)C(=O)[C@@H](NC(=O)[C@@]1(C)CCCN1C)C(C)C [#200, 1,2-dimethyl-D-prolyl-N-[(3R,4S,5S)-3-methoxy-1-{(2S)-2-[(1R,2R)-1-methoxy-3-{[(2S)-1-methoxy-1-oxo-3-(1,2,3,4-tetrahydroquinolin-6-yl)propan-2-yl]amino}-2-methyl-3-oxopropyl]pyrrolidin-1-yl}-5-methyl-1-oxoheptan-4-yl]-N-methyl-L-valinamide] | 0.048 nM | 0.029 nM | 0.017 nM | 
2 | CC[C@H](C)[C@@H]([C@@H](CC(=O)N1CCC[C@H]1[C@H](OC)[C@@H](C)C(=S)N[C@@H](Cc1ccccc1)C(=O)OC)OC)N(C)C(=O)[C@@H](NC(=O)[C@@H](NC)C(C)C)C(C)C [#42, N-methyl-L-valyl-N-[(3R,4S,5S)-3-methoxy-1-{(2S)-2-[(1R,2R)-1-methoxy-3-{[(2S)-1-methoxy-1-oxo-3-phenylpropan-2-yl]amino}-2-methyl-3-thioxopropyl]pyrrolidin-1-yl}-5-methyl-1-oxoheptan-4-yl]-N-methyl-L-valinamide] | 0.125 nM | 0.327 nM | 0.195 nM | 
3 | CC[C@H](C)[C@@H]([C@@H](CC(=O)N1CCC[C@H]1[C@H](OC)[C@@H](C)C(=O)N[C@@H](Cc1ccccc1)C(=O)O)OC)N(C)C(=O)[C@@H](NC(=O)[C@@]1(C)CCCCN1)C(C)C [#163, N-{(2R,3R)-3-methoxy-3-[(2S)-1-{(3R,4S,5S)-3-methoxy-5-methyl-4-[methyl(N-{[(2R)-2-methylpiperidin-2-yl]carbonyl}-L-valyl)amino]heptanoyl}pyrrolidin-2-yl]-2-methylpropanoyl}-L-phenylalanine] (H-[dαMePip]V[Dil][Dolaproine]F-OH) | ≥ 100 nM | 72.7 nM | 99.4 nM | 
4 | CC[C@H](C)[C@@H]([C@@H](CC(=O)N1CCC[C@H]1[C@H](OC)[C@@H](C)C(=O)N[C@@H](Cc1ccccc1)C(=O)N1CCNCC1)OC)N(C)C(=O)[C@@H](NC(=O)[C@]1(C)CCCN1C)C(C)C [#245] (NMeαMePro-V[Dil][Dolaproine]F-{N(CH2CH2)2NH}) | 11.8 nM | 33 nM | 31.9 nM | 
5 | CC[C@H](C)[C@@H]([C@@H](CC(=O)N1CCC[C@H]1[C@H](OC)[C@@H](C)C(=O)N[C@@H](Cc1ccccc1)C(=O)O)OC)N(C)C(=O)[C@@H](NC(=O)C(C)(C)NC)C(C)C [#115, N,2-dimethylalanyl-N-{(1S,2R)-4-{(2S)-2-[(1R,2R)-3-{[(1S)-1-carboxy-2-phenylethyl]amino}-1-methoxy-2-methyl-3-oxopropyl]pyrrolidin-1-yl}-2-methoxy-1-[(1S)-1-methylpropyl]-4-oxobutyl}-N-methyl-L-valinamide] (H-[NMeAib]V[Dil][Dolaproine]F-OH) | 31.5 nM | 50.3 nM | 19.9 nM | 
6 | CC[C@H](C)[C@@H]([C@@H](CC(=O)N1CCC[C@H]1[C@H](OC)[C@@H](C)C(=S)N[C@@H](Cc1ccccc1)c1nccs1)OC)N(C)C(=O)[C@@H](NC(=O)C(C)(C)NC)C(C)C [#84, N,2-dimethylalanyl-N-[(3R,4S,5S)-3-methoxy-1-{(2S)-2-[(1R,2R)-1-methoxy-2-methyl-3-{[(1S)-2-phenyl-1-(1,3-thiazol-2-yl)ethyl]amino}-3-thioxopropyl]pyrrolidin-1-yl}-5-methyl-1-oxoheptan-4-yl]-N-methyl-L-valinamide] | 0.246 nM | 0.426 nM | 0.686 nM | 
7 | CC[C@H](C)[C@@H]([C@@H](CC(=O)N1CCC[C@H]1[C@H](OC)[C@@H](C)C(=O)NC12CC(C1)C2)OC)N(C)C(=O)[C@@H](NC(=O)C(C)(C)N)C(C)C [#221] (H-[Aib]V[Dil][Dolaproine]-X3) | 32.4 nM | 87.9 nM | 65.4 nM | 
8 | CC[C@H](C)[C@@H]([C@@H](CC(=O)N1CCC[C@H]1[C@H](OC)[C@@H](C)C(=O)N[C@@H](Cc1ccccc1)C(=O)OC)OC)N(C)C(=O)[C@@H](NC(=O)C(C)(C)NC)C(C)C [#226] (H-[NMeAib]V[Dil][Dolaproine]F-OMe) | 0.118 nM | 0.478 nM | 0.106 nM | 
9 | CC[C@H](C)[C@@H]([C@@H](CC(=O)N1CCC[C@H]1[C@H](OC)[C@@H](C)C(=O)NCCc1ccccc1)OC)N(C)C(=O)[C@@H](NC(=O)C1(N)COC1)C(C)C [#75, N^2-[(3-aminooxetan-3-yl)carbonyl]-N-{(3R,4S,5S)-3-methoxy-1-[(2S)-2-{(1R,2R)-1-methoxy-2-methyl-3-oxo-3-[(2-phenylethyl)amino]propyl}pyrrolidin-1-yl]-5-methyl-1-oxoheptan-4-yl}-N-methyl-L-valinamide] (H-[Ac4c(3-oxa)]V[Dil][Dolaproine]-NHPhenethyl) | > 100 nM | > 100 nM | > 100 nM | 
10 | CC[C@H](C)[C@@H]([C@@H](CC(=O)N1CCC[C@H]1[C@H](OC)[C@@H](C)C(=O)N[C@@H](C(=O)OC)[C@@H]1Cc2ccccc21)OC)N(C)C(=O)[C@@H](NC(=O)C(C)(C)N)C(C)C [#224] (H-[Aib]V[Dil][Dolaproine][X6]-OMe) | 0.383 nM | 1.56 nM | 0.998 nM | 
11 | CC[C@H](C)[C@@H]([C@@H](CC(=O)N1CCC[C@H]1[C@H](OC)[C@@H](C)C(=O)N[C@@H](Cc1ccccc1)C(=O)OC)OC)N(C)C(=O)[C@@H](NC(=O)[C@@]1(F)CCNC1)C(C)C [#173, methyl N-{(2R,3R)-3-[(2S)-1-{(3R,4S,5S)-4-[(N-{[(3R)-3-fluoropyrrolidin-3-yl]carbonyl}-L-valyl)(methyl)amino]-3-methoxy-5-methylheptanoyl}pyrrolidin-2-yl]-3-methoxy-2-methylpropanoyl}-L-phenylalaninate] |  | 0.099 nM | 0.067 nM | 0.088 nM
12 | CC[C@H](C)[C@@H]([C@@H](CC(=O)N1CCC[C@H]1[C@H](OC)[C@@H](C)C(=O)N[C@@H](Cc1ccccc1)C(=O)O)OC)N(C)C(=O)[C@@H](NC(=O)[C@]1(C)CCCN1)C(C)C [#118, 2-methyl-L-prolyl-N-[(3R,4S,5S)-1-{(2S)-2-[(1R,2R)-3-{[(1S)-1-carboxy-2-phenylethyl]amino}-1-methoxy-2-methyl-3-oxopropyl]pyrrolidin-1-yl}-3-methoxy-5-methyl-1-oxoheptan-4-yl]-N-methyl-L-valinamide] (H-[αMeP]V[Dil][Dolaproine]F-OH) | ≥ 100 nM | ≥ 100 nM | ≥ 100 nM | 
13 | CC[C@H](C)[C@@H]([C@@H](CC(=O)N1CCC[C@H]1[C@H](OC)[C@@H](C)C(=O)N[C@@H](Cc1ccccc1)C(=O)OC)OC)N(C)C(=O)[C@@H](NC(=O)[C@@](C)(N)C(C)C)C(C)C [#147, 3-methyl-L-isovalyl-N-{(1S,2R)-4-{(2S)-2-[(1R,2R)-3-{[(1S)-1-benzyl-2-methoxy-2-oxoethyl]amino}-1-methoxy-2-methyl-3-oxopropyl]pyrrolidin-1-yl}-2-methoxy-1-[(1S)-1-methylpropyl]-4-oxobutyl}-N-methyl-L-valinamide] (H-[αMeV]V[Dil][Dolaproine]F-OMe) | 0.456 nM | 0.144 nM | 0.421 nM | 
14 | CC[C@H](C)[C@@H]([C@@H](CC(=O)N1CCC[C@H]1[C@H](OC)[C@@H](C)C(=O)N[C@@H](Cc1ccccc1)C(=O)O)OC)N(C)C(=O)[C@@H](NC(=O)[C@]1(C)CCCN1C)C(C)C [#151, 1,2-dimethyl-L-prolyl-N-{(1S,2R)-4-{(2S)-2-[(1R,2R)-3-{[(1S)-1-carboxy-2-phenylethyl]amino}-1-methoxy-2-methyl-3-oxopropyl]pyrrolidin-1-yl}-2-methoxy-1-[(1S)-1-methylpropyl]-4-oxobutyl}-N-methyl-L-valinamide] (NMeαMePro-V[Dil][Dolaproine]F-OH) | 84.9 nM | 62 nM | 84.6 nM | 
15 | CC[C@H](C)[C@@H]([C@@H](CC(=O)N1CCC[C@H]1[C@H](OC)[C@@H](C)C(=O)N[C@H](Cc1ccccc1)C(=O)O)OC)N(C)C(=O)[C@@H](NC(=O)C(C)(C)NC)C(C)C [#244] (H-[NMeAib]V[Dil][Dolaproine][dF]-OH) | 73.1 nM | ≥ 100 nM | ≥ 100 nM | 
16 | CC[C@H](C)[C@@H]([C@@H](CC(=O)N1CCC[C@H]1[C@H](OC)[C@@H](C)C(=O)NCCc1ccccc1)OC)N(C)C(=O)[C@@H](NC(=O)C(C)(C)N)C(C)C [#56, 2-methylalanyl-N-{(3R,4S,5S)-3-methoxy-1-[(2S)-2-{(1R,2R)-1-methoxy-2-methyl-3-oxo-3-[(2-phenylethyl)amino]propyl}pyrrolidin-1-yl]-5-methyl-1-oxoheptan-4-yl}-N-methyl-L-valinamide] (H-[Aib]V[Dil][Dolaproine]-NHPhenethyl) | 0.316 nM | 1.26 nM | 0.766 nM | 
17 | CC[C@H](C)[C@@H]([C@@H](CC(=O)N1CCC[C@H]1[C@H](OC)[C@@H](C)C(=O)NCCC1C=CC=CC=C1)OC)N(C)C(=O)[C@@H](NC(=O)[C@@]1(F)CCNC1)C(C)C [#184, N-[(3R,4S,5S)-1-{(2S)-2-[(1R,2R)-3-{[2-(cyclohepta-2,4,6-trien-1-yl)ethyl]amino}-1-methoxy-2-methyl-3-oxopropyl]pyrrolidin-1-yl}-3-methoxy-5-methyl-1-oxoheptan-4-yl]-N˜2˜-{[(3R)-3-fluoropyrrolidin-3-yl]carbonyl}-N-methyl-L-valinamide] | 2.48 nM | 5.1 nM | 3.43 nM | 
